Reference: US12103914B2, “Compositions of biologically active menaquinol derivatives and methods of treatment” (Epizon Pharma, Inc., priority 2020, dated 2024)

Tested on: vascular calcification and tissue calcification in patient with moderate calciphylaxis
Test: Treatment of patients diagnosed with moderate calciphylaxis (case examples)
Format: in vivo, human
Protocol: This example describes the administration of the disclosed compounds to subjects diagnosed with calciphylaxis. Typical symptoms include presentation of characteristic painful skin lesions (Nigwekar et al. (2015) Calciphylaxis: Risk Factors, Diagnosis, and Treatment. Am. J. Kidney Dis. 66:133-46). Definitive diagnosis of calciphylaxis is achieved via skin biopsy. Further conditions need to be considered for correct diagnosis.
The dosage form is a 5 mg, 10 mg, 25 mg, 50 mg or 100 mg soft-gel capsule. Two 50 mg capsules are administered once daily to the 100 mg dosage cohort. […]

**Q.** What does the source list for Potassium salt of Menaquinol-7?
**A.** reduction in tissue calcification (70 kg patient, 50 mg, 3 months): 20%; reduction in vascular calcification (suggested by change in examined biomarker levels) (70 kg patient, 50 mg, 3 months): ~25%

**Q.** Which results are given for Calcium salt of Menaquinol-7?
**A.** reduction in tissue calcification (45 kg patient, 20 mg, 10 weeks): 15%; reduction in vascular calcification (suggested by change in examined biomarker levels) (45 kg patient, 20 mg, 10 weeks): ~20%; reduction in tissue calcification (65 kg patient, 100 mg, 8 weeks): 10%; reduction in vascular calcification (suggested by change in examined biomarker levels) (65 kg patient, 100 mg, 8 weeks): ~10%
